Source: patent US8993638B2, “Brominated nitroalkanol compositions and their use as biocides” (Dow Global Technologies LLC, priority 2009, dated 2015)

Assays:
[1] = system: oil field isolated anaerobic SRB consortium; experiment: Biocidal efficacy (MBC) against SRB, 40° C. for 24 hour; format: cell-based, sulfate reducing bacteria (SRB); details: alone or in the combination, minimum tested biocide concentration for bacteria kill, 10^6 to 10^7 CFU/mL
Experimental: The synergy indexes reported in the following examples are calculated using the following equation: Synergy Index=Ca/CA+Cb/CB where Ca: Concentration of biocide A required to achieve a certain level or complete bacterial kill when used in combination; CA: Concentration of biocide A required to achieve a certain level or complete bacterial kill when used alone; Cb: Concentration of biocide B required to achieve a certain level or complete bacterial kill when used in combination; and CB: Concentration of biocide B required to achieve a certain level or complete bacterial kill when used alone. A synergy index (SI) of 1 indicates additivity, a synergy index of less than 1 indicates synergy, and a synergy index greater than 1 indicates antagonism. Various methods known to those skilled in the art can be used for evaluating biocidal efficacy. In the examples below, aliquots of the biocide-treated samples are removed at predetermined time points and the biocide concentration required to achieve a certain level or complete bacterial kill is determined by culture-based methods including serial dilution. […] After the mixtures are incubated at 40° C. for 24 hour, the biocidal efficacy is determined by minimum tested biocide concentration for bacteria kill in the aliquots (MBC). […]

oilfield SRB consortium = experiment: Biocidal efficacy against SRB under high temperature and sulfide-rich conditions; format: cell-based, sulfate reducing bacteria (SRB); details: alone or in the combination, 80° C. anaerobic, daily challenge with SRB and 10 ppm sulfide
Experimental: The synergy indexes reported in the following examples are calculated using the following equation: Synergy Index=Ca/CA+Cb/CB where Ca: Concentration of biocide A required to achieve a certain level or complete bacterial kill when used in combination; CA: Concentration of biocide A required to achieve a certain level or complete bacterial kill when used alone; Cb: Concentration of biocide B required to achieve a certain level or complete bacterial kill when used in combination; and CB: Concentration of biocide B required to achieve a certain level or complete bacterial kill when used alone. […] In the examples below, aliquots of the biocide-treated samples are removed at predetermined time points and the biocide concentration required to achieve a certain level or complete bacterial kill is determined by culture-based methods including serial dilution. […] After incubation for 2 h the biocidal efficacy is evaluated against the field SRB consortium at 40° C. for 2 h. After incubation for 7 days the biocidal efficacy are evaluated again for 24 h. The biocidal efficacy is determined by the lowest testing biocide dosage concentration required to achieve a 3 log 10 or greater bacterial reduction, of both 2 hours and 7 days heat and SRB-sulfide exposure. Synergy Index is then calculated. […]

SMILES | MBC (active ppm) TA ([1]; concentration of TA) [active ppm] | Dosage required for 3log10 bacterial reduction of both 2 h and 7 day heat and SRB-sulfide exposure (active ppm) TA (oilfield SRB consortium; concentration of TA) [active ppm] | MBC (active ppm) BNPD ([1]; concentration of BNPD) [active ppm] | Dosage required for 3log10 bacterial reduction of both 2 h and 7 day heat and SRB-sulfide exposure (active ppm) BNPD (oilfield SRB consortium; concentration of BNPD) [active ppm]
O=[N+]([O-])C(CO)(CO)CO [0:1, tris(hydroxymethyl)nitromethane] | 36.5 | 360.0 |  | 
O=[N+]([O-])C(Br)(CO)CO [1:0, 2-bromo-2-nitro-1,3-propanediol] |  |  | 3.5 | 180.0
